Laboratory results reported in patent US20260355318A1, “MOLECULAR MACHINES FOR TREATMENT OF CANCER, FUNGAL INFECTIONS, OR BACTERIAL INFECTIONS” (priority 2022, published 2026).

Tested on: C. albicans
Experiment: Time-kill assay, C. albicans
Type: cell-based, Candida albicans
Details: C. albicans, 2×MIC, 405-nm light at 292 mW cm^−2
Description: For yeasts, five independent colonies were collected from 24-h SDAE plates, inoculated into yeast peptone with 2% dextrose (YPD), and grown for 24 h at 30 °C. Cells were then sub-cultured in fresh medium and grown for ~9 h. Afterward, the cells were centrifuged (5,000 ×g, 5 min), washed, and resuspended in phosphate-buffered saline (PBS) to ~10^6 CFU mL^−1. For A. fumigatus, conidia suspensions (~10^4 CFU mL^−1) were prepared in PBS as previously described.
Amphotericin B (AMB, 4×MIC) controls were prepared likewise, but light was omitted. Aliquots were collected in 1-min increments for up to 10 min, serially diluted in PBS, and plated on SDAE medium. Plates were incubated at 30 ° C for 48 h with confirmation after 72 h (yeasts) or at 28 ° C for 7 days with confirmation after 14 days (A. fumigatus), after which the CFU number was determined. The results were expressed as the logarithm of base 10 of the ratio between the CFU at each time point and the CFU at time 0. The detection limit of the method was ~1 log10 CFU mL^−1.

With `C[C@@H]1Cc2ccc3ccccc3c2/C1=C1\c2ccccc2Sc2cc(NCCN)ccc21` (racemic) [MM 6, N^1-(9-(2-methyl-2,3-dihydro-1H-cyclopenta[a]naphthalen-1-ylidene)-9H-thioxanthen-3-yl)ethane-1,2-diamine] the “time to reduce cell numbers to limit of detection” value was 5 min.
